# Patent publication US7691901B2, “Carotenoid analogs or derivatives for the inhibition and amelioration of inflammation” (Cardax Pharmaceuticals Inc., priority 2004, dated 2010)
# Tested on: lipid peroxidation products
# Assay: Thioglycollate/Zymosan-induced peritonitis model: lipid oxidation products in peritoneal lavage by electrospray ionization tandem mass spectrometry
# Assay type: in vivo, mice
# Details: for 13-HODE MEAN / 13-HODE MEDIAN / Prostaglandin F2α (PGF2α) MEAN / Prostaglandin F2α (PGF2α) MEDIAN / 9-HETE/AA (ratio) MEAN / 9-HETE/AA (ratio) MEDIAN / 9-HODE MEAN / 9-HODE MEDIAN / 9-HETE MEAN / 9-HETE MEDIAN / Linoleic Acid MEAN / Linoleic Acid MEDIAN / Arachidonic Acid MEAN / Arachidonic Acid MEDIAN / PGF2a/AA (ratio) MEAN / PGF2a/AA (ratio) MEDIAN / 13-HODE/AA (ratio) MEAN / 13-HODE/AA (ratio) MEDIAN / 9-HODE/LA (ratio) MEAN / 9-HODE/LA (ratio) MEDIAN / 11-HETE MEAN / 11-HETE MEDIAN / 5-HETE MEAN / 5-HETE MEDIAN / 11-HETE/AA (ratio) MEAN / 11-HETE/AA (ratio) MEDIAN / 5-HETE/AA (ratio) MEAN / 5-HETE/AA (ratio) MEDIAN: 500 mg/kg oral gavage
# Description: Thioglycollate/Zymosan—Induced Peritonitis Model: Wild-type mice were administered either 500 mg/kg body weight of disodium disuccinate astaxanthin (ddAst/Cardax™) in an oil emulsion vehicle, or normal saline (NS) as a negative control, by oral gavage at 24 hours intervals beginning 7 days prior to the induction of peritonitis. Peritonitis was induced experimentally as follows: mice were injected intraperitoneally with 1 ml of 4% by weight thioglycollate (Tg) broth, to induce the recruitment of proinflammatory cells to the peritoneum. Either 16 hours or 72 hours after recruitment, approximately half of the mice were injected intraperitoneally with 250 mg/kg body weight of zymosan (Z) for a further 4 hours. The mice not receiving zymosan underwent no further treatment. Peritoneal lavage was performed in control animals or animals treated with (ddAst) 16 hours post Tg injection, or 20 h following the combination of both Tg injection (16 hours) followed by Z injection (4 hours), as indicated (Tg/Z). Peritoneal lavages were performed with phosphate-buffered saline containing antioxidant (0.1 mM butylated hydroxytoluene (BHT)) and 2 mM of the metal chelator diethylenetriamine pentaacetic acid (DTPA) according to established practices in the art. The lavage suspensions were transferred to screw-capped tubes under an argon atmosphere, and immediately centrifuged at 1000 rpm in a table top microcentrifuge for 10 min at 4° C. to remove whole cells and debris. All analyses of lipid peroxidation products was performed on cell-free lavage supernatants. Cell pellets were resuspended in phosphate-buffered saline containing 0.1 mM BHT and 0.1 mM DTPA, and differential cell counts (macrophages, monocytes, eosinophils, lymphocytes, neutrophils, and erythrocytes) were performed on cytospun preparations of isolated cells according to established procedures in the art.
# Electrospray ionization tandem mass spectrometry was used to simultaneously quantify individual molecular species of HETEs, HPETEs, the prostaglandin PGF2α, F2-isoprostanoids, hydroxy- and hydroperoxy-octadecadienoic acids (H(P)ODEs), and their precursors, arachidonic acid (AA) and linoleic acid (LA). Additionally, the molar ratios of o-tyrosine (oY/F). were measured.
# [1] = 16 Hour Thioglycollate/4 Hour Zymosan, P-VALUE 0.165
# [2] = 16 Hour Thioglycollate/4 Hour Zymosan, P-VALUE 0.250
# [3] = 16 Hour Thioglycollate/4 Hour Zymosan, P-VALUE 0.272 NP
# [4] = 16 Hour Thioglycollate/4 Hour Zymosan, P-VALUE 0.299
# [5] = 16 Hour Thioglycollate/4 Hour Zymosan, P-VALUE 0.354
# [6] = 16 Hour Thioglycollate/4 Hour Zymosan, P-VALUE 0.557
# [7] = 16 Hour Thioglycollate/4 Hour Zymosan, P-VALUE 0.685 NP
# [8] = 16 Hour Thioglycollate/4 Hour Zymosan, P-VALUE 0.772 NP
# [9] = 16 Hour Thioglycollate/4 Hour Zymosan, P-VALUE 0.862 NP
# [10] = 16 Hour Thioglycollate/4 Hour Zymosan, P-VALUE 0.900
# [11] = 16 Hour Thioglycollate/4 Hour Zymosan, P-VALUE 0.954 NP
# [12] = 16 Hour Thioglycollate/4 Hour Zymosan, P-VALUE 1.000 NP
# [13] = 16 Hour Thioglycollate/4 Hour Zymosan
# [14] = 16 Hour Thioglycollate, P-VALUE 0.018
# [15] = 16 Hour Thioglycollate, P-VALUE 0.040
# [16] = 16 Hour Thioglycollate, P-VALUE 0.096
# [17] = 16 Hour Thioglycollate, P-VALUE 0.120
# [18] = 16 Hour Thioglycollate, P-VALUE 0.172
# [19] = 16 Hour Thioglycollate, P-VALUE 0.227 NP
# [20] = 16 Hour Thioglycollate, P-VALUE 0.318 NP
# [21] = 16 Hour Thioglycollate, P-VALUE 0.372 NP
# [22] = 16 Hour Thioglycollate, P-VALUE 0.564 NP
# [23] = 16 Hour Thioglycollate, P-VALUE 0.793 NP
# [24] = 16 Hour Thioglycollate, P-VALUE 0.875 NP
# [25] = 16 Hour Thioglycollate, P-VALUE 0.958 NP
# [26] = 16 Hour Thioglycollate, P-VALUE 0.982
# [27] = 16 Hour Thioglycollate, P-VALUE 0.986
# [28] = 72 Hour Thioglycollate/4 Hour Zymosan, P-VALUE 0.001 NP
# [29] = 72 Hour Thioglycollate/4 Hour Zymosan, P-VALUE 0.002 NP
# [30] = 72 Hour Thioglycollate/4 Hour Zymosan, P-VALUE 0.006
# [31] = 72 Hour Thioglycollate/4 Hour Zymosan, P-VALUE 0.008
# [32] = 72 Hour Thioglycollate/4 Hour Zymosan, P-VALUE 0.010
# [33] = 72 Hour Thioglycollate/4 Hour Zymosan, P-VALUE 0.018 NP
# [34] = 72 Hour Thioglycollate/4 Hour Zymosan, P-VALUE 0.056 NP
# [35] = 72 Hour Thioglycollate/4 Hour Zymosan, P-VALUE 0.118 NP
# [36] = 72 Hour Thioglycollate/4 Hour Zymosan, P-VALUE 0.271
# [37] = 72 Hour Thioglycollate/4 Hour Zymosan, P-VALUE 0.385 NP
# [38] = 72 Hour Thioglycollate/4 Hour Zymosan, P-VALUE 0.629
smiles,measurement,setting,value
"CC1=C(/C=C/C(C)=C/C=C/C(C)=C/C=C/C=C(C)/C=C/C=C(C)/C=C/C2=C(C)C(=O)C(OC(=O)CCC(=O)O)CC2(C)C)C(C)(C)CC(OC(=O)CCC(=O)O)C1=O (stereo not drawn) [Cardax, disodium disuccinate astaxanthin]",13-HODE MEAN,[1],5.689 pmol
same,13-HODE MEDIAN,[1],4.768 pmol
same,Prostaglandin F2α (PGF2α) MEAN,[2],0.038 pmol
same,Prostaglandin F2α (PGF2α) MEDIAN,[2],0.035 pmol
same,9-HETE/AA (ratio) MEAN,[3],0.529
same,9-HETE/AA (ratio) MEDIAN,[3],0.472
same,9-HODE MEAN,[4],2.767 pmol
same,9-HODE MEDIAN,[4],2.825 pmol
same,9-HETE MEAN,[5],0.559 pmol
same,9-HETE MEDIAN,[5],0.612 pmol
same,Linoleic Acid MEAN,[6],13158 pmol
same,Linoleic Acid MEDIAN,[6],10509 pmol
same,Arachidonic Acid MEAN,[7],1208.5 pmol
same,Arachidonic Acid MEDIAN,[7],1039.6 pmol
same,PGF2a/AA (ratio) MEAN,[7],0.038
same,PGF2a/AA (ratio) MEDIAN,[7],0.025
same,13-HODE/AA (ratio) MEAN,[8],0.456
same,13-HODE/AA (ratio) MEDIAN,[8],0.376
same,9-HODE/LA (ratio) MEAN,[9],0.245
same,9-HODE/LA (ratio) MEDIAN,[9],0.201
same,11-HETE MEAN,[9],0.654 pmol
same,11-HETE MEDIAN,[9],0.450 pmol
same,5-HETE MEAN,[10],1.082 pmol
same,5-HETE MEDIAN,[10],0.953 pmol
same,11-HETE/AA (ratio) MEAN,[11],0.669
same,11-HETE/AA (ratio) MEDIAN,[11],0.453
same,5-HETE/AA (ratio) MEAN,[12],0.997
same,5-HETE/AA (ratio) MEDIAN,[12],0.770
same,"5-oxo-ETE (pmol), MEAN",[13],0.085 pmol
same,"5-oxo-ETE (ratio), MEAN",[13],0.080 ratio
same,"8-iso-F2a (pmol), MEAN",[13],0.012 pmol
same,"8-iso-F2a/AA (ratio), MEAN",[13],0.011 ratio
same,"5-oxo-ETE (pmol), MEDIAN",[13],0.083 pmol
same,"5-oxo-ETE (ratio), MEDIAN",[13],0.081 ratio
same,"8-iso-F2a (pmol), MEDIAN",[13],0.000 pmol
same,"8-iso-F2a/AA (ratio), MEDIAN",[13],0.000 ratio
same,Arachidonic Acid MEAN,[14],1791.6 pmol
same,Arachidonic Acid MEDIAN,[14],1854.3 pmol
same,Linoleic Acid MEAN,[15],22739 pmol
same,Linoleic Acid MEDIAN,[15],22907 pmol
same,13-HODE/AA (ratio) MEAN,[16],0.905
same,13-HODE/AA (ratio) MEDIAN,[16],0.920
same,9-HODE MEAN,[17],5.367 pmol
same,9-HODE MEDIAN,[17],3.831 pmol
same,Prostaglandin F2α (PGF2α) MEAN,[18],0.037 pmol
same,Prostaglandin F2α (PGF2α) MEDIAN,[18],0.033 pmol
same,9-HETE/AA (ratio) MEAN,[19],0.476
same,9-HETE/AA (ratio) MEDIAN,[19],0.448
same,5-HETE MEAN,[20],0.334 pmol
same,5-HETE MEDIAN,[20],0.255 pmol
same,11-HETE MEAN,[21],0.434 pmol
same,11-HETE MEDIAN,[21],0.329 pmol
same,9-HODE/LA (ratio) MEAN,[22],0.292
same,9-HODE/LA (ratio) MEDIAN,[22],0.255
same,11-HETE/AA (ratio) MEAN,[23],0.239
same,11-HETE/AA (ratio) MEDIAN,[23],0.195
same,5-HETE/AA (ratio) MEAN,[24],0.218
same,5-HETE/AA (ratio) MEDIAN,[24],0.151
same,9-HETE MEAN,[25],0.826 pmol
same,9-HETE MEDIAN,[25],0.718 pmol
same,13-HODE MEAN,[26],18.838 pmol
same,13-HODE MEDIAN,[26],15.191 pmol
same,PGF2a/AA (ratio) MEAN,[27],0.034
same,PGF2a/AA (ratio) MEDIAN,[27],0.018
same,"5-oxo-ETE (pmol), MEAN",16 Hour Thioglycollate,0.128 pmol
same,"5-oxo-ETE (ratio), MEAN",16 Hour Thioglycollate,0.056 ratio
same,"8-iso-F2a (pmol), MEAN",16 Hour Thioglycollate,0.052 pmol
same,"8-iso-F2a/AA (ratio), MEAN",16 Hour Thioglycollate,0.044 ratio
same,"5-oxo-ETE (pmol), MEDIAN",16 Hour Thioglycollate,0.078 pmol
same,"5-oxo-ETE (ratio), MEDIAN",16 Hour Thioglycollate,0.067 ratio
same,"8-iso-F2a (pmol), MEDIAN",16 Hour Thioglycollate,0.069 pmol
same,"8-iso-F2a/AA (ratio), MEDIAN",16 Hour Thioglycollate,0.034 ratio
same,Arachidonic Acid MEAN,[28],3554.3 pmol
same,Arachidonic Acid MEDIAN,[28],2429.5 pmol
same,5-HETE/AA (ratio) MEAN,[29],0.369
same,5-HETE/AA (ratio) MEDIAN,[29],0.333
same,9-HODE/LA (ratio) MEAN,[30],0.132
same,9-HODE/LA (ratio) MEDIAN,[30],0.134
same,11-HETE/AA (ratio) MEAN,[31],0.253
same,11-HETE/AA (ratio) MEDIAN,[31],0.237
same,PGF2a/AA (ratio) MEAN,[32],0.011
same,PGF2a/AA (ratio) MEDIAN,[32],0.012
same,Linoleic Acid MEAN,[33],33183 pmol
same,Linoleic Acid MEDIAN,[33],27585 pmol
same,9-HETE/AA (ratio) MEAN,[34],0.253
same,9-HETE/AA (ratio) MEDIAN,[34],0.244
same,9-HETE MEAN,[35],0.917 pmol
same,9-HETE MEDIAN,[35],0.687 pmol
same,13-HODE/AA (ratio) MEAN,[35],0.229
same,13-HODE/AA (ratio) MEDIAN,[35],0.186
same,13-HODE MEAN,[36],7.181 pmol
same,13-HODE MEDIAN,[36],6.732 pmol
same,5-HETE MEAN,[37],1.236 pmol
same,5-HETE MEDIAN,[37],0.997 pmol
same,Prostaglandin F2α (PGF2α) MEAN,[38],0.040 pmol
same,Prostaglandin F2α (PGF2α) MEDIAN,[38],0.039 pmol
